Experimental data: patent US10004701B2, “Methods and compositions for treating infection” (UNIVERSITY OF ROCHESTER, priority 2012, dated 2018)
Where a name gives a salt, the structure may show the parent alone. Read-outs that look alike come from different tables or passages of the source.

What was measured:
Assay in all cases: AK assay 384-well format, Prestwick library screening
[1] = test system: E. coli; assay type: cell-based, Escherichia coli; settings: 50 μM final drug concentration; for fold induction at 50 µM: Escherichia coli, 3 h
[2] = test system: E. faecium; assay type: cell-based, Enterococcus faecium; settings: for fold induction at 50 µM: Enterococcus faecium, 3 h
[3] = test system: E. cloacae; assay type: cell-based, Enterobacter cloacae; settings: for fold induction at 50 µM: Enterobacter cloacae, 3 h
[4] = test system: A. baumannii strain 98-37-09; assay type: cell-based, Acinetobacter baumannii; settings: for fold induction at 50 µM: Acinetobacter baumannii, 983709, 3 h
[5] = test system: K. pneumoniae; assay type: cell-based, Klebsiella pneumoniae; settings: for fold induction at 50 µM: Klebsiella pneumoniae, 3 h
[6] = test system: P. aeruginosa; assay type: cell-based, Pseudomonas aeruginosa; settings: for fold induction at 50 µM: Pseudomonas aeruginosa, 3 h
[7] = test system: S. aureus strain USA300-0114; assay type: cell-based, Staphylococcus aureus; settings: for fold induction at 50 µM: Staphylococcus aureus, USA300, 3 h
[8] = cutoff for positive-scoring molecules 3-fold increase, read-out: AK-based Prestwick Library Screening Results, E. coli (fold increase in extracellular AK activity)
[9] = 50 μM final drug concentration, cutoff for positive-scoring molecules 3-fold increase, read-out: AK-based Prestwick Library Screening Results, E. faecium (fold increase in extracellular AK activity)
[10] = 50 μM final drug concentration, cutoff for positive-scoring molecules 3-fold increase, read-out: AK-based Prestwick Library Screening Results, E. cloacae (fold increase in extracellular AK activity)
[11] = 50 μM final drug concentration, cutoff for positive-scoring molecules 3-fold increase, read-out: AK-based Prestwick Library Screening Results, A. baumannii (fold increase in extracellular AK activity)
[12] = 50 μM final drug concentration, cutoff for positive-scoring molecules 3-fold increase, read-out: AK-based Prestwick Library Screening Results, K. pneumoniae (fold increase in extracellular AK activity)
[13] = 50 μM final drug concentration, cutoff for positive-scoring molecules 3-fold increase, read-out: AK-based Prestwick Library Screening Results, P. aeruginosa (fold increase in extracellular AK activity)
[14] = 50 μM final drug concentration, cutoff for positive-scoring molecules 3-fold increase, read-out: AK-based Prestwick Library Screening Results, S. aureus (fold increase in extracellular AK activity)
[15] = 384-well format, cutoff for positive-scoring molecules 3-fold increase, read-out: AK-based Prestwick Library Screening Results, E. coli (increase in extracellular AK activity)
[16] = 50 μM final drug concentration, 384-well format, cutoff for positive-scoring molecules 3-fold increase, read-out: AK-based Prestwick Library Screening Results, E. faecium (increase in extracellular AK activity)
[17] = 50 μM final drug concentration, 384-well format, cutoff for positive-scoring molecules 3-fold increase, read-out: AK-based Prestwick Library Screening Results, E. cloacae (increase in extracellular AK activity)
[18] = 50 μM final drug concentration, 384-well format, cutoff for positive-scoring molecules 3-fold increase, read-out: AK-based Prestwick Library Screening Results, A. baumannii (increase in extracellular AK activity)
[19] = 50 μM final drug concentration, 384-well format, cutoff for positive-scoring molecules 3-fold increase, read-out: AK-based Prestwick Library Screening Results, K. pneumoniae (increase in extracellular AK activity)
[20] = 50 μM final drug concentration, 384-well format, cutoff for positive-scoring molecules 3-fold increase, read-out: AK-based Prestwick Library Screening Results, P. aeruginosa (increase in extracellular AK activity)
[21] = 50 μM final drug concentration, 384-well format, cutoff for positive-scoring molecules 3-fold increase, read-out: AK-based Prestwick Library Screening Results, S. aureus (increase in extracellular AK activity)
[22] = 50 μM final drug concentration, planktonic, cutoff for positive 3-fold increase

For `CC(C)[N+]1(C)[C@@H]2CC[C@H]1CC(OC(=O)C(CO)c1ccccc1)C2.[Br-]` (stereo partly drawn) [Ipratropium bromide], the “AK-based Prestwick Library Screening Results, E. coli (increase in extracellular AK activity)” value ([1]; planktonic E. coli, […]) was 0.6, the “AK-based Prestwick Library Screening Results, E. faecium (increase in extracellular AK activity)” value ([2]; planktonic E. faecium, 50 μM final drug concentration, […]) was 0.9 and the “AK-based Prestwick Library Screening Results, E. cloacae (increase in extracellular AK activity)” value ([3]; planktonic E. cloacae, 50 μM final drug concentration, […]) was 0.8. The “AK-based Prestwick Library Screening Results, A. baumannii (increase in extracellular AK activity)” value ([4]; planktonic A. baumannii, 50 μM final drug concentration, […]) was 0.6, the “AK-based Prestwick Library Screening Results, K. pneumoniae (increase in extracellular AK activity)” value ([5]; planktonic K. pneumoniae, 50 μM final drug concentration, […]) was 0.6 and the “AK-based Prestwick Library Screening Results, P. aeruginosa (increase in extracellular AK activity)” value ([6]; planktonic P. aeruginosa, 50 μM final drug concentration, […]) was 0.8. For the same molecule, the “AK-based Prestwick Library Screening Results, S. aureus (increase in extracellular AK activity)” value ([7]; planktonic S. aureus, 50 μM final drug concentration, […]) was 0.7.

`Cc1cc(C(=O)NNCc2ccccc2)no1` [Isocarboxazid] was tested, and the fold induction at 50 µM [1, 8] was 1.1, the fold induction at 50 µM [2, 9] was 1 and the fold induction at 50 µM [3, 10] was 1.5. The fold induction at 50 µM [4, 11] was 1.1, the fold induction at 50 µM [5, 12] was 1.1 and the fold induction at 50 µM [6, 13] was 1.1. It also gave a fold induction at 50 µM [7, 14] of 1.5.

`Clc1ccc(C(Cn2ccnc2)OCc2c(Cl)cccc2Cl)c(Cl)c1` (stereo not drawn) [Isoconazole] showed a fold induction at 50 µM [1, 15] of 1.8, a fold induction at 50 µM [2, 16] of 1.8 and a fold induction at 50 µM [3, 17] of 1.7. It also gave a fold induction at 50 µM [4, 18] of 5.6, a fold induction at 50 µM [5, 19] of 1.4 and a fold induction at 50 µM [6, 20] of 1.3. It also gave a fold induction at 50 µM [7, 21] of 5.2.

In the case of `COc1ccc2c(c1O)-c1c(OC)c(OC)cc3c1[C@H](C2)N(C)CC3` [Isocorydine (+)], the “AK-based Prestwick Library Screening Results, E. coli (increase in extracellular AK activity)” value ([1]; planktonic E. coli, cutoff for positive-scoring molecules 3-fold increase) is reported as 0.9, the “AK-based Prestwick Library Screening Results, E. faecium (increase in extracellular AK activity)” value ([2]; planktonic E. faecium, 50 μM final drug concentration, cutoff for positive-scoring molecules 3-fold increase) is reported as 0.9 and the “AK-based Prestwick Library Screening Results, E. cloacae (increase in extracellular AK activity)” value ([3]; planktonic E. cloacae, 50 μM final drug concentration, cutoff for positive-scoring molecules 3-fold increase) is reported as 1.3. For the same molecule, the “AK-based Prestwick Library Screening Results, A. baumannii (increase in extracellular AK activity)” value ([4]; planktonic A. baumannii, 50 μM final drug concentration, cutoff for positive-scoring molecules 3-fold increase) was 0.9, the “AK-based Prestwick Library Screening Results, K. pneumoniae (increase in extracellular AK activity)” value ([5]; planktonic K. pneumoniae, 50 μM final drug concentration, cutoff for positive-scoring molecules 3-fold increase) was 0.7 and the “AK-based Prestwick Library Screening Results, P. aeruginosa (increase in extracellular AK activity)” value ([6]; planktonic P. aeruginosa, 50 μM final drug concentration, cutoff for positive-scoring molecules 3-fold increase) was 0.8. For the same molecule, the “AK-based Prestwick Library Screening Results, S. aureus (increase in extracellular AK activity)” value ([7]; planktonic S. aureus, 50 μM final drug concentration, cutoff for positive-scoring molecules 3-fold increase) was 0.7.

`CC(=O)OCC(=O)[C@@]1(O)CC[C@H]2[C@@H]3CCC4=CC(=O)C=C[C@]4(C)[C@@]3(F)[C@@H](O)C[C@@]21C` [Isoflupredone acetate] showed a fold induction at 50 µM [1, 15] of 0.5, a fold induction at 50 µM [2, 16] of 0.9 and a fold induction at 50 µM [3, 17] of 0.4. It also gave a fold induction at 50 µM [4, 18] of 0.4, a fold induction at 50 µM [5, 19] of 0.5 and a fold induction at 50 µM [6, 20] of 0.4. For the same molecule, the fold induction at 50 µM [7, 21] was 0.4.

In the case of `CNC(C)CCC=C(C)C.CNC(C)CCC=C(C)C.O=C(O)[C@@H](O)[C@H](O)[C@H](O)[C@@H](O)C(=O)O` [Isometheptene mutate], the “AK-based Prestwick library screening result, E. coli (fold increase in extracellular AK activity)” value ([1]; planktonic E. coli, […]) is reported as 1.2, the “AK-based Prestwick library screening result, E. faecium (fold increase in extracellular AK activity)” value [2] is reported as 1.0 and the “AK-based Prestwick library screening result, E. cloacae (fold increase in extracellular AK activity)” value [3] is reported as 1.2. The “AK-based Prestwick library screening result, A. baumannii (fold increase in extracellular AK activity)” value [4] was 1.5, the “AK-based Prestwick library screening result, K. pneumoniae (fold increase in extracellular AK activity)” value [5] was 1.1 and the “AK-based Prestwick library screening result, P. aeruginosa (fold increase in extracellular AK activity)” value [6] was 1.1. The “AK-based Prestwick library screening result, S. aureus (fold increase in extracellular AK activity)” value [7] was 1.2.

Molecule `NNC(=O)c1ccncc1` [Isoniazid] has a fold induction at 50 µM [1, 15] of 0.6, a fold induction at 50 µM [2, 16] of 1 and a fold induction at 50 µM [3, 17] of 0.6. For the same molecule, the fold induction at 50 µM [4, 18] was 0.6, the fold induction at 50 µM [5, 19] was 0.6 and the fold induction at 50 µM [6, 20] was 0.6. For the same molecule, the fold induction at 50 µM [7, 21] was 0.7.

With `CC(C)[N+](C)(CCC(C(N)=O)(c1ccccc1)c1ccccc1)C(C)C` [Isopropamide iodide] the fold induction at 50 µM [1, 8] was 1.3, the fold induction at 50 µM [2, 9] was 1.1 and the fold induction at 50 µM [3, 10] was 1.5. The fold induction at 50 µM [4, 11] was 1, the fold induction at 50 µM [5, 12] was 1.1 and the fold induction at 50 µM [6, 13] was 1.2. The fold induction at 50 µM [7, 14] was 1.2.

For `Cc1c(NC(C)C)c(=O)n(-c2ccccc2)n1C.Cl` [Isopyrin hydrochloride], the “AK-based Prestwick Library Screening Results, E. coli (fold increase in extracellular AK activity)” value ([1]; planktonic, cutoff for positive 3-fold increase) was 0.4, the “AK-based Prestwick Library Screening Results, E. faecium (fold increase in extracellular AK activity)” value [2, 22] was 0.8 and the “AK-based Prestwick Library Screening Results, E. cloacae (fold increase in extracellular AK activity)” value [3, 22] was 0.3. For the same molecule, the “AK-based Prestwick Library Screening Results, A. baumannii (fold increase in extracellular AK activity)” value [4, 22] was 0.3, the “AK-based Prestwick Library Screening Results, K. pneumoniae (fold increase in extracellular AK activity)” value [5, 22] was 0.4 and the “AK-based Prestwick Library Screening Results, P. aeruginosa (fold increase in extracellular AK activity)” value [6, 22] was 0.4. The “AK-based Prestwick Library Screening Results, S. aureus (fold increase in extracellular AK activity)” value [7, 22] was 0.4.

With `CC1=C(/C=C/C(C)=C/C=C/C(C)=C\C(=O)O)C(C)(C)CCC1` [Isotretinoin] the fold induction at 50 µM [1, 15] was 0.7, the fold induction at 50 µM [2, 16] was 1 and the fold induction at 50 µM [3, 17] was 0.9. It also gave a fold induction at 50 µM [4, 18] of 0.7, a fold induction at 50 µM [5, 19] of 0.6 and a fold induction at 50 µM [6, 20] of 0.8. It also gave a fold induction at 50 µM [7, 21] of 0.6.

In the case of `Cc1cc(NC(=O)C2=C(O)c3ccccc3S(=O)(=O)N2C)no1` [Isoxicam], the fold induction at 50 µM [1, 15] is reported as 1.2, the fold induction at 50 µM [2, 16] is reported as 1 and the fold induction at 50 µM [3, 17] is reported as 1.4. For the same molecule, the fold induction at 50 µM [4, 18] was 1, the fold induction at 50 µM [5, 19] was 1 and the fold induction at 50 µM [6, 20] was 1. For the same molecule, the fold induction at 50 µM [7, 21] was 1.

`CC(COc1ccccc1)NC(C)C(O)c1ccc(O)cc1` (stereo not drawn) [Isoxsuprine hydrochloride] gave a fold induction at 50 µM ([1]; planktonic E. coli, 384-well, cutoff for positive-scoring molecules 3-fold increase, read-out: AK-based Prestwick Library Screening Results: E. coli (increase in extracellular AK activity)) of 1.1, a fold induction at 50 µM ([2]; planktonic E. faecium, 50 μM final drug concentration, 384-well, cutoff for positive-scoring molecules 3-fold increase, read-out: AK-based Prestwick Library Screening Results: E. faecium (increase in extracellular AK activity)) of 1 and a fold induction at 50 µM ([3]; planktonic E. cloacae, 50 μM final drug concentration, 384-well, cutoff for positive-scoring molecules 3-fold increase, read-out: AK-based Prestwick Library Screening Results: E. cloacae (increase in extracellular AK activity)) of 1.5. The fold induction at 50 µM ([4]; planktonic A. baumannii, 50 μM final drug concentration, 384-well, cutoff for positive-scoring molecules 3-fold increase, read-out: AK-based Prestwick Library Screening Results: A. baumannii (increase in extracellular AK activity)) was 1.5, the fold induction at 50 µM ([5]; planktonic K. pneumoniae, 50 μM final drug concentration, 384-well, cutoff for positive-scoring molecules 3-fold increase, read-out: AK-based Prestwick Library Screening Results: K. pneumoniae (increase in extracellular AK activity)) was 1 and the fold induction at 50 µM ([6]; planktonic P. aeruginosa, 50 μM final drug concentration, 384-well, cutoff for positive-scoring molecules 3-fold increase, read-out: AK-based Prestwick Library Screening Results: P. aeruginosa (increase in extracellular AK activity)) was 1.1. It also gave a fold induction at 50 µM ([7]; planktonic S. aureus, 50 μM final drug concentration, 384-well, cutoff for positive-scoring molecules 3-fold increase, read-out: AK-based Prestwick Library Screening Results: S. aureus (increase in extracellular AK activity)) of 1.1.
